Entries after “also recorded” stand apart in the source; their conditions may differ.
Tests used:
ES-2 cells [1] = experiment: Confocal microscopy competition with fluorescent analogue P30; format: cell-based; conditions: pretreatment at 3× IC50 for 30 min, then P30 (5 μM)
Description: ES-2 cells (3×10^5 cell) were attached overnight in […] petri dish plates containing 2 ml of RPMI media. Prior to imaging, cells were stained for 30 min with Mitotracker Red CMXRoss at 100 nM final concentration. Upon media replacement, samples were pre-treated with 3× IC50 of ferroptocide, P27, L1, QQ1 for 30 min followed by treatment with 5 μM P30 for an additional 30 min and a PBS wash. PBS or phenol free media was added to each dish and cells were stained with Hoechst 33342 (1 μg/mL).

ES-2 cell line = experiment: 72 hr cell viability assay (Alamar Blue), dose response IC50; format: cell-based; conditions: for IC50: Homo sapiens, 72 hr, ES-2 cell line, Alamar Blue fluorescence, mean ± s.e.m., n ≥ 3; for anticancer activity (in words): 72 hr cell viability assay, ES-2 cells, relative to ferroptocide
Description: 40 μL of media was added to each well of a 384-well tissue culture-treated plate. 3×100 nL of compound in DMSO was then pin-transferred from compound storage plates (2 mM stocks) into media-containing wells using the Platemate Plus at the UIUC High Throughput Screening Facility. A 100,000 cells/mL suspension of ES-2 cells was prepared, and 10 μL was added to each well for a final concentration of 1000 cells/well. Doxorubicin (100 μM final) was used as a positive control. Plates were sealed with gas-permeable seals and incubated at 37° C. for 72 h. After incubation, 5 μL of Alamar blue (440 μM resazurin in sterile PBS) was added and allowed to incubate for 3-4 h, until visible color change occurred. Fluorescence was measured in a Molecular Devices SpectraMax 3 (excitation=555 nm, emission=585 nm, emission cutoff=570 nm).
To a 384-well plate, 40 μL of 1.25× compound dilution or 1.25% DMSO-containing media was added (final volume of 1% DMSO). Concentrations of compounds tested were 100 μM to 100 nM. On each plate at least 3 technical replicates per compound were performed. Next, 10 μL of a 100,000 cells/mL suspension was added to each well, yielding a final concentration of 1,000 cells/well. To three wells in column 2 was added 1 μL of 10 mM doxorubicin (final concentration of 200 μM) as positive control of cell death. Plates were sealed with gas-permeable seals and incubated at 37° C. for 72 h. At that time, 5 μL of Alamar blue (440 μM resazurin in sterile PBS) was added and plates were incubated for 3-4 hours. Fluorescence was read on a Molecular Devices SpectraMax 3 (excitation=555 nm, emission=585 nm, emission cutoff=570 nm). Wells were normalized to the average of untreated wells (0% cell death). The data were plotted as compound concentration versus percent dead cells and fitted to a logistic-dose response curve using OriginPro 2015 (OriginLab, Northampton, Mass.). The data were generated in triplicate, and IC50 values are reported as the average of three separate experiments along with standard error of the mean.

red blood cells = experiment: Hemolysis assay; format: cell-based, human; conditions: 2 hr treatment with 333 μM
Description: Whole human blood in citrate phosphate dextrose was obtained from Bioreclamation LLC, stored at 4° C. and used before expiration date. 100 μL of whole blood was combined with 500 μL saline (0.9% NaCl) and centrifuged for 5 min at 300×g. The supernatant was carefully removed from the erythrocyte pellet and the liquid was discarded. Washed pellet 3× in 500 μL saline. The erythrocyte pellet was resuspended in 800 μL of Red Blood Cell Buffer (10 mM Na2HPO4, 150 mM NaCl, 1 mM MgCl2, pH 7.4). To a 0.5 mL eppendorf tube or a PCR plate was added 1.0 μL of 30× compound in DMSO and 19 μL RBC Buffer. For negative controls, 1.0 μL DMSO was combined with 19 μL RBC buffer. For positive controls, either 20 μL MilliQ H2O or 1.0 μL 30% Triton X-100 were combined with 19 μL RBC Buffer. Tubes or plates were briefly centrifuged. Next, 10 μL of washed erythrocyte suspension was added to each tube, then sealed. After incubation at 37° C. for 2 h, samples were centrifuged for 5 min at 300×g, and 20 μL of supernatant was carefully removed and transferred to wells of a clear flat-bottomed 384-well plate. Absorbance was measured at 540 nm. The data were plotted as compound concentration versus percent hemolysis, and fitted to OriginPro (OriginLab, Northampton, Mass.).

[2] = In vitro glutathione assay (LC-MS); format: physicochemical; conditions: 100 μM compound, 5 mM glutathione, PBS, 37° C.
Description: To an eppendorf tube added, 245 μL of 1×PBS, 5 μL of 10 mM DMSO stock of ferroptocide or P23 and 250 μL of reduced GSH (5 mM final concentration). Reactions were vortexed briefly and incubated at 37° C. Adduct formation was monitored at the indicated time points (0, 0.5, 1, 2, 3, 24 hr) by mixing an aliquot of 50 μL from the reaction mixture with 50 μL of MeOH before LC/MS analysis.

A549 cells = experiment: Protection studies against ferroptocide-induced cell death, AV/PI; format: cell-based; conditions: pre-treatment with protecting agent
Description: (§1) ES-2, HCT 116, Mia PaCa-2, A549, and 4T1 cells (1×10^5 cells/mL) were plated overnight in 12 well plates, prior to addition of compounds. For protection studies, samples were pre-treated with each protecting agent such as 25 μM Q-VD-OPh, 250 μM trolox, 2 μM ferrostatin-1, 5 mM NAC-1 (neutralized pH), or 100 μM deferoxamine (DFO) for two hours or 1 hr (NAC-1) before compound addition. Cells were incubated for the appropriate times and harvested for flow cytometry analysis. Cell pellets were resuspended in binding buffer (10 mM HEPES, pH 7.4, 140 mM NaCl, 2.5 mM CaCl2) containing 2 μg/mL propidium iodide and 5 μL/mL Annexin V-FITC conjugate antibody and analyzed for cell viability after gating for forward and side scattering. Ten thousand events were collected per sample in BD LSR II Flow Cytometer (BD Bioscience) and FCS express V6, De Novo software was used to perform experimental analysis.

HCT 116 cells = experiment: as above; format: cell-based; conditions: pre-treatment with protecting agent
Description: Cells were incubated for the appropriate times and harvested for flow cytometry analysis. Cell pellets were resuspended in binding buffer (10 mM HEPES, pH 7.4, 140 mM NaCl, 2.5 mM CaCl2) containing 2 μg/mL propidium iodide and 5 μL/mL Annexin V-FITC conjugate antibody and analyzed for cell viability after gating for forward and side scattering. Ten thousand events were collected per sample in BD LSR II Flow Cytometer (BD Bioscience) and FCS express V6, De Novo software was used to perform experimental analysis.

ES-2 cells [3] = experiment: as above; format: cell-based; conditions: pre-treatment with protecting agent
Description: as §1

4T1 cells = experiment: as above; format: cell-based, murine; conditions: pre-treatment with protecting agent
Description: as §1

SMILES	IC50 (ES-2 cell line) [µM]	anticancer activity (in words) (ES-2 cell line)	other results
CC[C@H](C)C(=O)O[C@H]1C[C@@H](C)C=C2C=C[C@H](C)[C@H](CC[C@@H]3C[C@@H](OC(=O)CCl)CC(=O)O3)[C@H]21 [Compound L1]	–	–	competition of P30 staining (ES-2 cells [1]): non-competing compounds
C=CC(=C)[C@@H]1C[C@@H](OC(=O)CCl)[C@]2(C)[C@H](C)CC[C@]3(C[C@H](O)C(=O)[C@]32O)[C@H]1C [Compound P4]	6.7	–	hemolytic activity (red blood cells): no signs of hemolytic activity; also recorded: Lack of hemolytic activity
CO[C@H]1C[C@@]23CC[C@@H](C)[C@@](C)([C@H](OC(=O)CCl)C[C@@H](C4=CCn5c(=O)n(-c6ccccc6)c(=O)n5C4)[C@@H]2C)[C@]3(O)C1=O [Compound P19]	1.9 ± 0.1	did not change the activity	–
CC(=O)O[C@H]1C[C@@]23CC[C@@H](C)[C@@](C)([C@H](OC(=O)CCl)C[C@@H](C4=CCn5c(=O)n(-c6ccccc6)c(=O)n5C4)[C@@H]2C)[C@]3(O)C1=O [Compound P20]	1.4 ± 0.5	did not change the activity	–
CO[C@H]1C[C@@]23CC[C@@H](C)[C@@](C)([C@H](OC(C)=O)C[C@@H](C4=CCn5c(=O)n(-c6ccccc6)c(=O)n5C4)[C@@H]2C)[C@]3(O)C1=O [Compound P21]	> 100	eliminated activity	–
C[C@@H]1CC[C@@]23C[C@H](O)C(=O)[C@@]2(O)[C@]1(C)[C@H](OC(=O)CF)C[C@@H](C1=CCn2c(=O)n(-c4ccccc4)c(=O)n2C1)[C@@H]3C [Compound P22]	34 ± 5.7	greatly diminished anticancer activity	–
C[C@@H]1CC[C@@]23C[C@H](O)C(=O)[C@@]2(O)[C@]1(C)[C@H](OC(=O)CI)C[C@@H](C1=CCn2c(=O)n(-c4ccccc4)c(=O)n2C1)[C@@H]3C [Compound P23]	0.24 ± 0.002	greater potency in cells	reactivity with excess glutathione (in words) [2]: rapid reaction
CC(=O)OCC(=O)O[C@@H]1C[C@@H](C2=CCn3c(=O)n(-c4ccccc4)c(=O)n3C2)[C@H](C)[C@@]23CC[C@@H](C)[C@]1(C)[C@]2(O)C(=O)[C@@H](O)C3 [Compound P24]	> 100	no anticancer activity	–
CO[C@H]1C[C@@]23CC[C@@H](C)[C@@](C)([C@H](OC(=O)C(Cl)Cl)C[C@@H](C4=CCn5c(=O)n(-c6ccccc6)c(=O)n5C4)[C@@H]2C)[C@]3(O)C1=O [Compound P25]	> 100	no anticancer activity	–
CO[C@H]1C[C@@]23CC[C@@H](C)[C@@](C)([C@H](OC(=O)c4ccco4)C[C@@H](C4=CCn5c(=O)n(-c6ccccc6)c(=O)n5C4)[C@@H]2C)[C@]3(O)C1=O [Compound P26]	> 100	no anticancer activity	–
C=C[C@]1(C)C[C@@H](OC(=O)CCl)[C@]2(C)[C@H](C)CC[C@]3(CCC(=O)[C@H]32)[C@@H](C)[C@@H]1O [Compound P27]	–	–	competition of P30 staining (ES-2 cells [1]): non-competing compounds
C[C@@H]1CC[C@@]23C[C@H](O)C(=O)[C@@]2(O)[C@]1(C)[C@H](OC(=O)CCl)C[C@@H](C1=CCC2C(=O)N(c4ccccc4)C(=O)C2C1)[C@@H]3C (stereo partly shown) [Compound P28]	–	minimal loss in activity; also recorded: retain biological activity	–
C#CCN1C(=O)C2CC=C([C@@H]3C[C@@H](OC(=O)CCl)[C@]4(C)[C@H](C)CC[C@]5(C[C@H](O)C(=O)[C@]54O)[C@H]3C)CC2C1=O (stereo partly shown) [Compound P29]	–	retained anticancer activity similar to ferroptocide; also recorded: retain biological activity	–
CC1=CC(C)=[N+]2C1=Cc1ccc(CCC(=O)NCCCn3cc(CN4C(=O)C5CC=C([C@@H]6C[C@@H](OC(=O)CCl)[C@]7(C)[C@H](C)CC[C@]8(C[C@H](O)C(=O)[C@]87O)[C@H]6C)CC5C4=O)nn3)n1[B-]2(F)F (stereo partly shown) [Compound P30]	–	retained anticancer activity similar to ferroptocide; also recorded: retain biological activity	–
CC(=O)N[C@@H](CS)C(=O)O [NAC-1, N-acteyl cysteine]	–	–	protection against ferroptocide-induced cell death (A549 cells): protection from ferroptocide- and TBHP-induced cell death; protection against ferroptocide-induced cell death (HCT 116 cells): protection from ferroptocide- and TBHP-induced cell death
CC(C)[C@H](NC(=O)c1ccc2ccccc2n1)C(=O)N[C@@H](CC(=O)O)C(=O)COc1c(F)cccc1F [Q-VD-OPh]	–	–	protection against ferroptocide-induced cell death (ES-2 cells [3]): does not protect against ferroptocide-induced cell death; protection against ferroptocide-induced cell death (HCT 116 cells): does not protect against ferroptocide-induced cell death
C=CC1CN2CCC1CC2[C@H](OC(=O)CCl)c1ccnc2ccc(OC)cc12 (stereo partly shown) [QQ1]	–	–	competition of P30 staining (ES-2 cells [1]): non-competing compounds
CCOC(=O)c1ccc(NC2CCCCC2)c(N)c1 [ferrostatin-1]	–	–	protection against ferroptocide-induced cell death (4T1 cells): significantly protected against ferroptocide-induced cell death; protection against ferroptocide-induced cell death (ES-2 cells [3]): significantly protected against ferroptocide-induced cell death; protection against ferroptocide-induced cell death (A549 cells): significantly protected against ferroptocide-induced cell death; protection against ferroptocide-induced cell death (HCT 116 cells): significantly protected against ferroptocide-induced cell death
Cc1c(C)c2c(c(C)c1O)CCC(C)(C(=O)O)O2 (stereo not shown) [trolox]	–	–	protection against ferroptocide-induced cell death (4T1 cells): significantly protected against ferroptocide-induced cell death; protection against ferroptocide-induced cell death (ES-2 cells [3]): significantly protected against ferroptocide-induced cell death; protection against ferroptocide-induced cell death (A549 cells): significantly protected against ferroptocide-induced cell death; protection against ferroptocide-induced cell death (HCT 116 cells): significantly protected against ferroptocide-induced cell death
